In patent US12516049B2, “Sulfonylurea ring substituted monocyclic β-lactam antibiotics” (priority 2019, dated 2026):

Key:
Experiment in all cases: MIC, two-fold agar dilution, clinical isolate
Type in all cases: cell-based
E.coli 020028 = settings: Escherichia coli, single drug, average of three tests
Experimental: (§1) The minimum inhibitory concentration (MIC) of the compound and combination with β-lactamase (MBLs) inhibitors against clinically isolated carbapenem-resistant enterobacteriaceae was determined by the two-fold agar dilution method to determine the activity of the compound to be tested against strains producing MBLs. Antibiotics and enzyme inhibitors were weighed separately and dissolved in sterile ultrapure water or dimethyl sulfoxide to prepare mother liquor, MHA medium was prepared, pH was adjusted to 7.2-7.4, and it was sterilized at 121° C. for 15 minutes and placed in a 55° C. water bath for heat preservation. The mother liquor was diluted to the concentration to be tested by double dilution method, an inoculum liquid was prepared by direct bacterial suspension method, 1 mL of the prepared bacteria solution was withdrawn and putted into the inoculation tube, and a positioning needle and an inoculation needle were installed. A bacterial multi-point inoculator was started for inoculation. After the bacterial solution was absorbed by the agar, the plate was placed upside down in an incubator at 37° C. for 16-20 hours, and the results were observed. The average of three tests was taken.

E.coli 020031 = settings: Escherichia coli, single drug, average of three tests
Experimental: as §1

E.coli 020033 = settings: Escherichia coli, single drug, average of three tests
Experimental: as §1

E.coli 115103 = settings: Escherichia coli; E.coli 115103; single drug; average of three tests; read-out: MIC
Experimental: as §1

E.coli BAA-2452 = settings: Escherichia coli, BAA2452
Experimental: as §1

E.coli C1569 = settings: Escherichia coli, single drug, average of three tests
Experimental: as §1

E.coli CRE18 = settings: Escherichia coli; E.coli CRE18; single drug; average of three tests; read-out: MIC
Experimental: as §1

E.coli CRE21 = settings: Escherichia coli; E.coli CRE21; single drug; average of three tests; read-out: MIC
Experimental: as §1

E.coli CRE23 = settings: Escherichia coli; E.coli CRE23; single drug; average of three tests; read-out: MIC
Experimental: as §1

E.coli CRE28 = settings: Escherichia coli; E.coli CRE28; single drug; average of three tests; read-out: MIC
Experimental: as §1

K.p 090339 = test system: K.p 090339
Experimental: as §1

K.p 115004 = test system: K.p 115004
Experimental: as §1

K.p 11544 = settings: K.p 11544; single drug; average of three tests; read-out: MIC
Experimental: as §1

K.p 13249 = settings: K.p 13249; single drug; average of three tests; read-out: MIC
Experimental: as §1

K.p 6777 = test system: K.p 6777
Experimental: as §1

K.p BAA-2470 = test system: K.p BAA-2470
Experimental: as §1

K.p C904 = test system: K.p C904
Experimental: as §1

K.p CRE11 = test system: K.p CRE11
Experimental: as §1

K.p CRE12 = settings: single drug, average of three tests
Experimental: as §1

K.p CRE16 = settings: single drug, average of three tests
Experimental: as §1

K.p HX37 = settings: K.p HX37; single drug; average of three tests; read-out: MIC
Experimental: as §1

K.p HX77 = settings: single drug, average of three tests
Experimental: as §1

[1] = test system: Morganella morganii C1274; settings: Morganella morganii, C1274
Experimental: as §1

E.coli 115101 = settings: Escherichia coli; E.coli 115101; single drug; average of three tests; read-out: MIC
Experimental: as §1, with “Antibiotics and enzyme inhibitors were weighed separately and dissolved in sterile ultrapure water or dimethyl sulfoxide to prepare mother liquor, MHA medium was prepared, pH was adjusted to 7.2-7.4, and it was sterilized at 121° C. for 15 minutes and placed in a 55° C. water bath for heat preservation.” left out

E.coli 115105 = settings: Escherichia coli, single drug, average of three tests
Experimental: as §1, with “Antibiotics and enzyme inhibitors were weighed separately and dissolved in sterile ultrapure water or dimethyl sulfoxide to prepare mother liquor, MHA medium was prepared, pH was adjusted to 7.2-7.4, and it was sterilized at 121° C. for 15 minutes and placed in a 55° C. water bath for heat preservation.” left out

K.p HX30 = settings: K.p HX30; single drug; average of three tests; read-out: MIC
Experimental: as §1, with “Antibiotics and enzyme inhibitors were weighed separately and dissolved in sterile ultrapure water or dimethyl sulfoxide to prepare mother liquor, MHA medium was prepared, pH was adjusted to 7.2-7.4, and it was sterilized at 121° C. for 15 minutes and placed in a 55° C. water bath for heat preservation.” left out

SMILES: NC[C@@H]1CN(C[C@@H]2[C@H](NC(=O)/C(=N\OC3(C(=O)O)CC3)c3csc(N)n3)C(=O)N2S(=O)(=O)O)S(=O)(=O)N1 [Compound 4]
- MIC (E.coli 020028): 0.03 µg/mL
- MIC (E.coli 020031): 0.5 µg/mL
- MIC (E.coli 020033): 1 µg/mL
- MIC (E.coli 115103): 1 µg/mL
- MIC (E.coli BAA-2452): 0.125 µg/mL
- MIC (E.coli C1569): 1 µg/mL
- MIC (E.coli CRE18): 1 µg/mL
- MIC (E.coli CRE21): 1 µg/mL
- MIC (E.coli CRE23): 1 µg/mL
- MIC (E.coli CRE28): 1 µg/mL
- MIC (K.p 090339): 0.125 µg/mL
- MIC (K.p 115004): 0.125 µg/mL
- MIC (K.p 11544): 0.06 µg/mL
- MIC (K.p 13249): 0.06 µg/mL
- MIC (K.p 6777): 0.125 µg/mL
- MIC (K.p BAA-2470): 0.125 µg/mL
- MIC (K.p C904): 0.125 µg/mL
- MIC (K.p CRE11): 0.125 µg/mL
- MIC (K.p CRE12): 0.06 µg/mL
- MIC (K.p CRE16): 0.06 µg/mL
- MIC (K.p HX37): 0.25 µg/mL
- MIC (K.p HX77): 0.03 µg/mL
- MIC [1]: 0.125 µg/mL
- MIC (E.coli 115101): 0.5 µg/mL
- MIC (E.coli 115105): 1 µg/mL
- MIC (K.p HX30): 0.5 µg/mL
